Test results from patent publication US20230310388A1, “Methods and Compositions for Treating Fungal Infections” (Neoculi Pty Ltd, priority 2020, published 2023).
≈ marks a conversion by molar mass, not a printed value. Where “and” joins values, the source holds several entries; their conditions need not be identical. Identical values can stand only once.

Assays:
Candida albicans [1] = experiment: CLSI broth microdilution MIC (Example 3); assay type: cell-based
Experimental: (§1) Antifungal minimum inhibitory concentration (MIC) testing was undertaken as recommended by the CLSI. Briefly, antifungal susceptibility tests were performed for amphotericin B, robenidine (NCL812) and 5 robenidine analogs (NCL062, NCL195, NCL219, NCL259, NCL265) by standard broth microdilution method (CLSI) in RPMI 1640. Various concentrations (ranging from high to low) of the selected compounds were prepared in RPMI 1640 medium by double dilution in 96-well microtitre plates. Each well contained an inoculum of approximately 2×10^3 cells/mL. The wells without addition of drugs served as negative (no inoculum) and positive (inoculum only) growth controls. Microtitre plates were incubated at 35° C. for 24-48 hours. […] Antifungal MICs were determined for each isolate in duplicate; if the values obtained were different, the MIC test was repeated a third time. Antifungal susceptibility tests were performed for amphotericin B and NCL analogs by standard broth microdilution method (CLSI). Briefly, various concentrations (ranging from high to low) of the selected compounds were prepared in RPMI 1640 medium by double dilution in the 96-well plates. Each well contained an inoculum of approximately 2×10^3 cells/mL. The wells without addition of drugs served as a negative control. Micro plates were incubated at 35° C. for 48 hour and read spectrophotometrically at 600 nm, using a microplate reader (Multiskan-EX; Thermo Elect. Corp., USA).

Candida parapsilosis = experiment: CLSI broth microdilution MIC (Example 3); assay type: cell-based; details: Candida parapsilosis ATCC 22019
Experimental: as §1

Candida albicans [2] = experiment: CLSI broth microdilution MIC (Example 5); assay type: cell-based
Experimental: (§2) Antifungal minimum inhibitory concentration (MIC) testing was undertaken as recommended by the CLSI. Briefly, antifungal susceptibility tests were performed for amphotericin B, robenidine (NCL812) and robenidine analogs (NCL23, NCL24, NCL97, NCL113, NCL115, NCL195, NCL219, NCL220, NCL259, NCL265) by standard broth microdilution method (CLSI) in RPMI 1640. Various concentrations (ranging from high to low) of the selected compounds were prepared in RPMI 1640 medium by double dilution in 96-well microtitre plates. Each well contained an inoculum of approximately 2×10^3 cells/mL. The wells without addition of drugs served as negative (no inoculum) and positive (inoculum only) growth controls. Microtitre plates were incubated at 35° C. for 24-48 hours. […] Antifungal MICs were determined for each isolate in duplicate; if the values obtained were different, the MIC test was repeated a third time.

Cryptococcus neoformans [3] = experiment: CLSI broth microdilution MIC (Example 5); assay type: cell-based
Experimental: as §2

Candida albicans [4] = experiment: CLSI broth microdilution MIC (Example 4); assay type: cell-based; details: for antifungal activity against the two isolates of Candida albicans: summary in words
Outline: (§3)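 CLSI broth microdilution in RPMI 1640 with two-fold compound dilutions and inoculum about 2×10^3 cells/mL. Plates incubated 35° C for 24-48 hours; MICs determined in duplicate, with a third test when the duplicates differed.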

Cryptococcus neoformans [5] = experiment: CLSI broth microdilution MIC (Example 4); assay type: cell-based
Outline: as §3

C. gattii = experiment: CLSI broth microdilution MIC (Example 6); assay type: cell-based, Cryptococcus gattii
Experimental: (§4) Antifungal minimum inhibitory concentration (MIC) testing was undertaken as recommended by the CLSI (1). Briefly, antifungal susceptibility tests were performed for amphotericin B, robenidine (NCL812) and 10 robenidine analogs (NCL023, NCL024, NCL097, NCL113, NCL115, NCL195, NCL219, NCL220, NCL259, NCL265) by standard broth microdilution method (CLSI) in RPMI 1640. Various concentrations (ranging from high to low) of the selected compounds were prepared in RPMI 1640 medium by double dilution in 96-well microtitre plates. Each well contained an inoculum of approximately 2×10^3 cells/mL. The wells without addition of drugs served as negative (no inoculum) and positive (inoculum only) growth controls. Microtitre plates were incubated at 35° C. for 24-48 hours. […] Antifungal MICs were determined for each isolate in duplicate; if the values obtained were different, the MIC test was repeated a third time.

[6] = tested on: Candida albicans ATCC14053; experiment: Broth micro-dilution screen at 16 μg/mL and MIC (Example 9); assay type: cell-based; details: for Screen at 16 μg/mL: single concentration 16 μg/mL, Growth or No growth of C. albicans ATCC14053
Experimental: The antifungal activity of 201 NCL analogs against Candida albicans ATCC14053 in vitro was investigated. A broth micro-dilution method was used, according to CLSI guidelines as described. NCL analogs were dissolved in DMSO and originally screened at a single concentration of 16 μg/mL.

Candida albicans [7] = experiment: CLSI broth microdilution MIC (Example 6); assay type: cell-based
Experimental: as §4

Cryptococcus neoformans [8] = experiment: CLSI broth microdilution MIC (Example 6); assay type: cell-based
Experimental: as §4

[9] = Candida albicans ATCC 90028, 1st
[10] = Candida albicans ATCC 90028, 2nd

## [H]/N=C(\N)NN=C(CCCCCC)c1ccc(Cl)cc1 [NCL265]
Candida albicans [1]; [9]
  MIC: 2 µg/mL (≈ 7.12 µM)
Candida albicans [1]; [10]
  MIC: 2 µg/mL (≈ 7.12 µM)
Candida albicans [1]; Candida albicans, 1st
  MIC: 2 µg/mL (≈ 7.12 µM)
Candida albicans [1]; Candida albicans, 2nd
  MIC: 4 µg/mL (≈ 14.2 µM)
Candida parapsilosis; 1st
  MIC: 2 µg/mL (≈ 7.12 µM)
Candida parapsilosis; 2nd
  MIC: 2 µg/mL (≈ 7.12 µM)
Candida albicans [2]; C. albicans SA3
  MIC: 8 µg/mL (≈ 28.5 µM)
Candida albicans [2]; Candida albicans ATCC 90028
  MIC: 8 µg/mL (≈ 28.5 µM)
Candida albicans [2]; clinical isolate C. albicans 12-93301752 Azole Resistant
  MIC: 2 µg/mL (≈ 7.12 µM)
Candida albicans [2]; clinical isolate C. albicans 14-90045999 Azole Resistant
  MIC: 16 µg/mL (≈ 57 µM)
Candida albicans [2]; clinical isolate C. albicans 15-45171061
  MIC: 8 µg/mL (≈ 28.5 µM)
Candida albicans [2]; clinical isolate C. albicans 15-91329871
  MIC: 16 µg/mL (≈ 57 µM)
Candida albicans [2]; clinical isolate C. albicans 16-24136919 Azole Resistant
  MIC: 4 µg/mL (≈ 14.2 µM)
Candida albicans [2]; clinical isolate C. albicans 16-46177400
  MIC: 16 µg/mL (≈ 57 µM)
Candida albicans [2]; clinical isolate C. albicans 16-90050810
  MIC: 16 µg/mL (≈ 57 µM)
Candida albicans [2]; clinical isolate C. albicans 16-90054237
  MIC: 16 µg/mL (≈ 57 µM)
Candida albicans [2]; clinical isolate C. albicans 18-144-00196
  MIC: >16 µg/mL
Candida albicans [2]; clinical isolate C. albicans 18-148-08188 Azole Resistant
  MIC: 16 µg/mL (≈ 57 µM)
Candida albicans [2]; summary in words
  activity against one or more isolates of Cryptococcus neoformans and Candida albicans: highly active
Cryptococcus neoformans [3]; Cryptococcus neoformans SA1
  MIC: 1 µg/mL (≈ 3.56 µM)
Cryptococcus neoformans [3]; Cryptococcus neoformans SA2
  MIC: 1 µg/mL (≈ 3.56 µM)
Candida albicans [4]; Candida albicans ATCC 90028
  MIC at 24-48 hours: 8 µg/mL (≈ 28.5 µM)
Candida albicans [4]; Candida albicans SA3
  MIC at 24-48 hours: 8 µg/mL (≈ 28.5 µM)
Candida albicans [4]
  antifungal activity against the two isolates of Candida albicans: high antifungal activity
Cryptococcus neoformans [5]; Cryptococcus neoformans SA1
  MIC at 24-48 hours: 1 µg/mL (≈ 3.56 µM)
Cryptococcus neoformans [5]; Cryptococcus neoformans SA2
  MIC at 24-48 hours: 1 µg/mL (≈ 3.56 µM)
C. gattii; human clinical isolate C. gatti 17-90232099
  MIC: 8 µg/mL (≈ 28.5 µM)
C. gattii; human clinical isolate C. gattii 16-90050373
  MIC: 8 µg/mL (≈ 28.5 µM)
C. gattii; human clinical isolate C. gattii 17-90028211
  MIC: 8 µg/mL and 16 µg/mL
C. gattii; human clinical isolate C. gattii 17-90028217
  MIC: 4 µg/mL (≈ 14.2 µM)
C. gattii; human clinical isolate C. gattii 17-90028242
  MIC: 8 µg/mL (≈ 28.5 µM)
[6]; C. albicans ATCC14053, test range 0.25-64 μg/mL, duplicate
  MIC: 2 µg/mL (≈ 7.12 µM)
[6]
  Screen at 16 μg/mL: No growth
Candida albicans [7]; C. albicans SA3
  MIC: 8 µg/mL (≈ 28.5 µM)
Candida albicans [7]; Candida albicans ATCC 90028
  MIC: 8 µg/mL (≈ 28.5 µM)
Cryptococcus neoformans [8]; Cryptococcus neoformans SA1
  MIC: 1 µg/mL (≈ 3.56 µM)
Cryptococcus neoformans [8]; Cryptococcus neoformans SA2
  MIC: 1 µg/mL (≈ 3.56 µM)
Cryptococcus neoformans [8]; human clinical isolate C. neoformans serotype A/D hybrid
  MIC: 8 µg/mL (≈ 28.5 µM)
Cryptococcus neoformans [8]; human clinical isolate C. neoformans var grubii 16-90050434
  MIC: 4 µg/mL (≈ 14.2 µM)
Cryptococcus neoformans [8]; human clinical isolate C. neoformans var grubii 17-90028233
  MIC: 8 µg/mL (≈ 28.5 µM)
Cryptococcus neoformans [8]; human clinical isolate C. neoformans var grubii 17-93996464
  MIC: 8 µg/mL (≈ 28.5 µM)
Cryptococcus neoformans [8]; human clinical isolate C. neoformans var grubii 17-93996964
  MIC: 8 µg/mL (≈ 28.5 µM)

## C/C(=N\NC(=N)N/N=C(\C)c1ccc(Cl)cc1)c1ccc(Cl)cc1.Cl [NCL062]
Candida albicans [1]; [9]
  MIC: 1 µg/mL
Candida albicans [1]; [10]
  MIC: 1 µg/mL
Candida albicans [1]; Candida albicans, 1st
  MIC: 0.5 µg/mL
Candida albicans [1]; Candida albicans, 2nd
  MIC: 1 µg/mL
Candida parapsilosis; 1st
  MIC: 0.5 µg/mL
Candida parapsilosis; 2nd
  MIC: 1 µg/mL
Candida albicans [4]; Candida albicans ATCC 90028
  MIC at 24-48 hours: 1 µg/mL
Candida albicans [4]; Candida albicans SA3
  MIC at 24-48 hours: 1 µg/mL
Candida albicans [4]
  antifungal activity against the two isolates of Candida albicans: high antifungal activity
Cryptococcus neoformans [5]; Cryptococcus neoformans SA1
  MIC at 24-48 hours: 1 µg/mL
Cryptococcus neoformans [5]; Cryptococcus neoformans SA2
  MIC at 24-48 hours: 1 µg/mL
[6]
  Screen at 16 μg/mL: Growth
